Row | melting point [°C] | SMILES
1 | 137 to 140 | COc1cc2ccc(C(=O)CCl)cc2cc1OC
2 | 69 to 71 | O=C1C=C/C(=C/c2cccc(C(F)(F)F)c2)O1
3 | 104 to 106 | Cc1cc(Oc2c(Cl)cc(C(F)(F)F)cc2Cl)nn1C(=O)NCC(F)(F)F
4 | 164 | CC(C)(C)OC(=O)c1nc(C2CC2)[nH]c(=O)c1OCc1ccccc1
5 | 164 to 165 | OC1c2ccc(Cl)cc2SC1Cn1ccnc1 (stereo not given)
6 | 60 to 63 | O=C(O)CN1CCC[C@H](OCc2cc(C(F)(F)F)cc(C(F)(F)F)c2)[C@@H]1c1ccccc1
7 | 108 to 109 | Cc1cc2c(cc1N1CCOCC1)OC(=O)C2C (stereo not given)
8 | 111 to 113 | CC(C)(C)CN1C(=O)C(=O)N(c2cccnc2)C1=S
9 | 225 to 226 | CC(C)c1cc(C(C)C)c(C(=O)Nc2ccc(C(=O)O)cc2)[nH]1
10 | 49 to 51 | CCOC(=O)c1cc(S)cc(S)c1
11 | 75 to 95 | O=C(NC[C@H]1CN(c2ccc3c(c2)CCCc2cnn(C(=O)c4ccccc4)c2-3)C(=O)O1)c1ccccc1
12 | 205 to 206 | Cc1nnc(-c2ccc3occ(-c4ccc(N(C)C)cc4)c3c2)o1
13 | 75 to 76 | Cc1ccc2c(c1)CN(C)C(=O)CC2
14 | 172 to 174 | CC(=O)c1cc(C(=O)c2ccc3ccccc3c2)c[nH]1
15 | 133 to 135 | Cc1ccc(CC2CCN(C(=O)CNc3ccc(NS(C)(=O)=O)cc3)CC2)cc1
16 | 142 to 146 | Clc1nc(C(c2ccccc2)(c2ccccc2)n2ccnc2)nc(Cl)c1Cl
17 | 188 to 189 | Cc1cccc(Nc2cc(Nc3cccc(O)c3)ncn2)c1
18 | 76 to 80 | COc1c(C)cnc(Cn2c(SC/C=C(\C)CCC=C(C)C)nc3ccccc32)c1C
19 | 159 to 160 | Cc1nc2c(N)nc3ccccc3c2n1CCOCc1ccccc1
20 | 245 to 246 | CCc1c(-c2ccc(O)cc2)c2cc(C(C)=O)c3cc(OC)cc1n32
21 | 164 to 165 | CS(=O)(=O)c1ccc(C(=O)c2cnoc2C2CC2)c2c1OC(F)(F)O2
22 | 202 | CC(=O)Nc1nc2cc(CN3CCN(C(c4ccccc4)c4ccccc4)CC3)ccc2n1C
23 | 126 to 127 | N#Cc1c(C(F)(F)F)nn(-c2c(Cl)cc(C(F)(F)F)cc2Cl)c1N(C(=O)C1CC1)C(=O)C1CC1
24 | 164 to 165 | Nc1cccc(Br)c1-c1ncc[nH]1

Row | melting point [°C] | SMILES
25 | 252 to 253 | O=P(COc1ccc2ccccc2c1-c1c(OCP(=O)(c2ccccc2)c2ccccc2)ccc2ccccc12)(c1ccccc1)c1ccccc1
26 | 112 | CCOC(=O)c1cccc2c(-c3ccc(C)cc3)nccc12
27 | 150 to 155 | N#Cc1cnc2cnc(F)cc2c1Cl
28 | 115 to 116 | Cc1nc2c(OCc3ccccc3)nccc2n1C
29 | 228 to 230 | CCc1nc2cccc(C)c2c(=O)n1C1CCC(=O)NC1=O (stereo not given)
30 | 26 to 30 | CC(C)CCOC(=O)c1ccc2c(=O)c3ccccc3ccc2c1
31 | 74 to 89 | COc1ccccc1-c1ccc2cnc(Nc3cccc(C4CCN(C)CC4)c3OC)nn12
32 | 202 to 208 | O=c1[nH]c2ccc([C@H]3CC[C@H](NCCS(=O)(=O)c4ccccc4)CC3)cc2o1
33 | 209 to 210 | COCC1(C)CCOc2ccc(/C=C/c3ccc(C(=O)O)cc3)cc21 (stereo not given)
34 | 250 to 251 | Cc1ccc(C(=O)c2c(O)cc(C(=O)O)cc2[N+](=O)[O-])cc1
35 | 190 to 192 | Cc1cc2c(-c3ccccc3Cl)c(NC(=O)Nc3cccc([N+](=O)[O-])c3)c(=O)n(C)c2cc1C
36 | 170 to 171 | COC(=O)c1cccc(CSc2c(O)cc(-c3ccccc3)oc2=O)c1
37 | 43.3 to 45.8 | C[C@H]1CCCC(C)(C)[C@@H]1[C@H](O)c1ccc(F)c(F)c1
38 | 92 | Cc1coc2cc(O)ccc12
39 | 144 to 146 | CC[C@H]1COC(=O)N1c1cc(C)nc(Oc2c(C)cc(Cl)cc2C)c1C(=O)OC
40 | 70 to 75 | OC(CN1CCN(Cc2ccccc2)CC1)Cn1c2ccc(Br)cc2c2cc(Br)ccc21 (stereo not given)
41 | 131 to 133 | COc1cc(NC(=S)NC2CCCCC2)ccc1NNC=O
42 | 214 to 216 | CS(=O)(=O)c1cccc(Nc2cc(-c3ccccc3O)ncn2)c1
43 | 151 to 154 | COc1cc(CCNc2ncnc3scnc23)ccc1O
44 | 208 | Cn1cncc1C(O)(c1ccc(C=O)cc1)c1ccc2c(c1)c(-c1cccc(Cl)c1)cc(=O)n2C (stereo not given)
45 | 147 to 149 | C=CC(=O)N1CCSC1c1cc(C(C)(C)C)c(O)c(C(C)(C)C)c1 (stereo not given)
46 | 147 to 149 | CC(C)(C)OC(=O)N[C@H]1CCCCNC1=O
47 | 228 to 231 | O=C1N(Cc2cc(F)ccn2)c2ccccc2C12COc1cc3c(cc12)OCCO3 (stereo not given)
48 | 68 to 70 | CC(=O)NCCC1(C[N+](=O)[O-])CCCCC1

Row | melting point [°C] | SMILES
49 | 154 to 155 | COc1cc(Cn2cc3c(CC(C)C)nn(C)c(=O)c3c2)cc(OC)c1OC
50 | 80 to 82 | CCCCCCCCc1ccc(CCC(CO)(CO)[N+](=O)[O-])cc1
51 | 77 to 78 | CN(C)c1ccc(C=O)c(O)c1
52 | 113 to 115 | O=C(O)c1ccc(S(=O)(=O)NCCSC2c3ccccc3COc3ccc(OCc4ccc5ccccc5n4)cc32)cc1 (stereo not given)
53 | 126 to 130 | COc1cc2c(cc1OC)OCC(=O)C2
54 | 96 to 98 | CC(C)(O)P(=O)(c1ccccc1)c1ccccc1
55 | 134 to 138 | COCCNC(=O)c1cccc(-c2cccc3cc(C(C)(O)c4cccc(C(F)(F)F)c4)sc23)c1 (stereo not given)
56 | 134 to 135 | CCCCC(NC(=O)OCc1ccccc1)P(C)(=O)O (stereo not given)
57 | 130 to 132 | Cc1ccc(C2OC(CO)C(O)C(O)C2O)cc1Cc1ccc(-c2ccc(F)nc2)s1 (stereo not given)
58 | 154 to 155 | Cc1ccc(S(=O)(=O)N[C@@H](C)C(=O)Oc2c[nH]c(-c3ccccc3)c2)cc1
59 | 170 to 171 | CC1=CC(O)C(OC(=O)c2ccc(N)cc2)C(C)(C)CC1=O (stereo not given)
60 | 102 to 104 | CCCOc1ccc(CCl)cc1-c1nc2c(CCC)nn(C)c2c(=O)[nH]1
61 | 270 | CC1(C)CC(Nc2nc(Cl)nc(NC3CC(C)(C)NC(C)(C)C3)n2)CC(C)(C)N1
62 | 158 to 161 | COc1ccc(Oc2c(N)cc(C(=O)O)cc2SCc2ccccc2)cc1
63 | 142 to 143 | O=C(Nc1ccc(C(=O)N2C[C@@H]3CCCN3S(=O)(=O)c3ccccc32)cc1)c1ccccc1-c1ccccc1
64 | 194 to 197 | CS(=O)(=O)c1ccc(-n2cc(C(F)(F)F)nc2-c2ccsc2)cc1
65 | 42 to 45 | CCC(CC)n1nnc2cc(C(F)(F)F)cc([N+](=O)[O-])c21
66 | 110 | CN(Cc1cccc(-c2ccc(CC3SC(=O)NC3=O)cc2)c1)C(=O)c1ccc(O)cc1 (stereo not given)
67 | > 300 | O=C1c2ccccc2-c2c1[nH]c(=O)c1ccccc21
68 | 126 to 127 | O=C1Cc2ccc([N+](=O)[O-])cc21
69 | 110 to 111 | O=C(O)CCc1cccc2c1C[C@@H](CCCCc1ccccc1)O2
70 | 230 to 232 | Cc1cccc(-n2c(-c3cc(-c4ccncc4)c(N4CCOCC4)s3)nc3ccccc3c2=O)c1
71 | 175 | COC(=O)c1ccc2c(c1)c1cc(-c3ccc(CN4CCOCC4)cc3)c(=O)n(C)c1n2C
72 | 208 to 210 | c1coc(-c2ccc3c(n2)[nH]c2ccccc23)c1

Row | melting point [°C] | SMILES
73 | 217 to 220 | O=C(NCc1ccccc1)c1cc2ccnc(Cl)c2[nH]1
74 | 130 | CNc1cc(Oc2ccc(Cl)cc2Cn2ccnc2)ccc1[N+](=O)[O-]
75 | 53 to 60 | CC(C)Cn1c(OCc2ccccc2)noc1=O
76 | 86 to 88 | COc1ccc([C@]2(C)Cc3cc(OC)ccc3[C@@H]2CCC2OCCCO2)cc1 (racemic)
77 | 146 to 149 | O=C(Nc1ccc(C(=O)O)cc1)OCCCCC1c2ccccc2-c2ccccc21
78 | 60 to 62 | C1CCN(CCN2CCNCC2)CC1
79 | 80 to 84 | CCCN(C)c1nc(N)nc2c1ncn2C1CC(F)C(CO)O1 (stereo not given)
80 | 145 | N#Cc1cccn(-c2cccnc2Cl)c1=O
81 | 126 to 130 | CC(C)(C)OC(=O)N1CCC(CNc2ccccn2)CC1
82 | 227 to 229 | COc1cc(-c2cnc3[nH]cc(C(=O)C(C)(C)CO)c3n2)cc(OC)c1OC
83 | 160 to 164 | CC(=O)c1ccc(-c2ccc(S(C)(=O)=O)cc2)o1
84 | 88 | CC1(C)CC(SCc2cc3c(cc2Cl)OCO3)=NO1
85 | 253 | Fc1ccc(Cn2c(NC3CCN(CCNc4nc5ccccc5[nH]4)CC3)nc3ccccc32)cc1
86 | 203 to 205 | COc1cc(Nc2cc3c(cc2Nc2ccccc2)C(=O)NC3=O)cc(OC)c1OC
87 | 181 to 182 | CC(=O)c1c(Cl)c(Cl)c([N+](=O)[O-])c2c1OCCO2
88 | 202 to 204 | CCN(C(=O)c1ccccc1C(=O)c1ccccc1)C1CCCCC1NS(=O)(=O)c1ccc(C)cc1 (stereo not given)
89 | 126 to 130 | Cc1ccc(C=CCN2CCc3nc(N)sc3CC2)cc1
90 | 204 | CCC(C)CNC(=O)c1ccc2cccc(Cc3ccc(C(=O)NS(=O)(=O)c4ccccc4C)cc3OC)c2c1 (stereo not given)
91 | 87 to 89 | CCON=C(C(C)=NOCc1ccccc1C(=COC)C(=O)OC)c1ccc(Oc2ccc(Cl)cc2)cc1
92 | 193 to 195 | O=C(O)Cn1cc(Cc2nc3c(F)c(F)cc(F)c3s2)c2cc(F)ccc21
93 | 150 to 151 | CCN(CC)CC1COCCN1CCNC(=O)N1c2ccccc2C(=O)Nc2cccnc21 (stereo not given)
94 | 75 | Cc1ccccc1-n1cnnc1C(F)(F)F
95 | 46 to 48 | CN(C)c1cncc(I)n1

Row | SMILES | melting point [°C]
96 | CC(=O)OC1CCC2C3CCC4=CC(=O)CCC4(CO)C3CCC12C (stereo not given) | 166 to 168
97 | Cc1noc(-c2ncn3c2CN(C)C(=O)c2c(Cl)cccc2-3)n1 | 212 to 213
98 | O=C(CCCN1CC=C(c2ccccc2)CC1)c1cccnc1 | 64 to 66
99 | CCCCCn1nc(-c2cccc(C(F)(F)F)c2F)c(=O)c2cccc(OC)c21 | 82 to 84
100 | CCCCN1C(=O)C(C)(C)N=C(c2ccccc2F)c2cc([N+](=O)[O-])cc(Cl)c21 | 151

Reference: a melting point compilation (Tetko et al.; mined from patent text by program, amines drawn as free bases though some values may be those of a salt)
